Target: human NaV 1.8 (Homo sapiens, UniProt Q9Y5Y9)
Assay: E-VIPR Assay Detecting and Measuring NaV Inhibition Properties
Type: cell-based
Conditions: HEK cells expressing a truncated form of human NaV 1.8 with full channel activity; electrical stimulation, membrane-potential FRET dyes; 30 minutes compound incubation; read-out: measured IC50 value in the E-VIPR Assay
Description: E-VIPR Assay Detecting and Measuring NaV Inhibition Properties
Sodium ion channels are voltage-dependent proteins that can be activated by inducing membrane voltage changes by applying electric fields. The electrical stimulation instrument and methods of use, referred to as E-VIPR, are described in International Publication No. WO 2002/008748 A3 and C.-J. Huang et al. Characterization of voltage-gated sodium channel blockers by electrical stimulation and fluorescence detection of membrane potential, 24 Nature Biotech. 439-46 (2006), both of which are incorporated by reference in their entirety. The instrument comprises a microtiter plate handler, an optical system for exciting the coumarin dye while simultaneously recording the coumarin and oxonol emissions, a waveform generator, a current- or voltage-controlled amplifier, and parallel electrode pairs that are inserted into assay plate wells. Under integrated computer control, this instrument passes user-programmed electrical stimulus protocols to cells within the wells of the microtiter plate.
16-20 hours prior to running the assay on E-VIPR, HEK cells expressing a truncated form of human NaV 1.8 with full channel activity were seeded into microtiter 384-well plates, pre-coated with matrigel, at a density of 25,000 cells per well. 2.5-5% KIR2.1 BacMam virus was added to the final cell suspension before seeding into cell plates. HEK cells were grown in Dulbecco's Modified Eagle's Medium (DMEM) supplemented with 10% FBS (Fetal Bovine Serum, qualified; Sigma #F4135), 1% NEAA (Non-Essential Amino Acids, Gibco #11140), 1% HEPES (Gibco #15630), 1% Pen-Strep (Penicillin-Streptomycin; Gibco #15140) and 5 μg/ml Blasticidin (Gibco #R210-01). Cells were expanded in 5-layer CellSTACK culture chambers or cell culture flasks with vented caps, with 90-95% humidity and 5% CO2.
Reagents and Stock Solutions:
100 mg/mL Pluronic F-127 (Sigma #P2443), in dry DMSO
Compound Plates: Corning 384-well Polypropylene Round Bottom #3656
Cell Plates: 384-well tissue culture treated plates (Greiner #781091-2B)
2.5-5% KIR 2.1 Bacmam virus (produced in-house), prepared as described in Section 3.3 of J. A. Fornwald et al., Gene Expression in Mammalian Cells Using BacMam, a Modified Baculovirus System, 1350 Methods in Molecular Biology 95-116 (2016), the entire contents of which are incorporated by reference. The concentration used can be dependent on viral titer of each batch.
5 mM DiSBAC6(3), a voltage sensitive oxonol acceptor (CAS number 169211-44-3; 5-[3-(1,3-dihexylhexahydro-4,6-dioxo-2-thioxo-5-pyrimidinyl)-2-propen-1-ylidene]-1,3-dihexyldihydro-2-thioxo-4,6(1H,5H)-pyrimidinedione), in dry DMSO. The preparation of DiSBAC6(3) is analogous to that of DiSBAC4(3) as described in Voltage Sensing by Fluorescence Resonance Energy Transfer in Single Cells, Gonzalez, J. E. and Tsien, R. Y. (1995) Biophys. J. 69, 1272-1280.
5 mM CC2-DMPE, a commercially available membrane-bound coumarin phospholipid FRET donor (ThermoFisher Scientific catalog number K1017, CAS number 393782-57-5; tetradecanoic acid, 1,1′-[(1R)-1-[8-(6-chloro-7-hydroxy-2-oxo-2H-1-benzopyran-3-yl)-3-hydroxy-3-oxido-8-oxo-2,4-dioxa-7-aza-3-phosphaoct-1-yl]-1,2-ethanediyl]ester) was prepared in dry DMSO. See also, Improved indicators of cell membrane potential that use fluorescence resonance energy transfer, Gonzalez, J. E. and Tsien, R. Y. (1997) Chem. Biol. 4, 269-277.
Voltage Assay Background Suppression Compound (VABSC-1) is prepared in H2O (89-363 mM, range used to maintain solubility)
Human Serum (HS, Millipore #S1P1-01KL, or Sigma SLBR5469V and SLBR5470V as a 50%/50% mixture, for 25% assay final concentration)
Sodium Chloride 160 mM (9.35 g/L), Potassium Chloride, 4.5 mM (0.335 g/L), Glucose 10 mM (1.8 g/L), Magnesium Chloride (Anhydrous) 1 mM (0.095 g/L), Calcium Chloride 2 mM (0.222 g/L), HEPES 10 mM (2.38 g/L) in water. […]

Chain of human NaV 1.8 (Q9Y5Y9 126-1722 limits assumed): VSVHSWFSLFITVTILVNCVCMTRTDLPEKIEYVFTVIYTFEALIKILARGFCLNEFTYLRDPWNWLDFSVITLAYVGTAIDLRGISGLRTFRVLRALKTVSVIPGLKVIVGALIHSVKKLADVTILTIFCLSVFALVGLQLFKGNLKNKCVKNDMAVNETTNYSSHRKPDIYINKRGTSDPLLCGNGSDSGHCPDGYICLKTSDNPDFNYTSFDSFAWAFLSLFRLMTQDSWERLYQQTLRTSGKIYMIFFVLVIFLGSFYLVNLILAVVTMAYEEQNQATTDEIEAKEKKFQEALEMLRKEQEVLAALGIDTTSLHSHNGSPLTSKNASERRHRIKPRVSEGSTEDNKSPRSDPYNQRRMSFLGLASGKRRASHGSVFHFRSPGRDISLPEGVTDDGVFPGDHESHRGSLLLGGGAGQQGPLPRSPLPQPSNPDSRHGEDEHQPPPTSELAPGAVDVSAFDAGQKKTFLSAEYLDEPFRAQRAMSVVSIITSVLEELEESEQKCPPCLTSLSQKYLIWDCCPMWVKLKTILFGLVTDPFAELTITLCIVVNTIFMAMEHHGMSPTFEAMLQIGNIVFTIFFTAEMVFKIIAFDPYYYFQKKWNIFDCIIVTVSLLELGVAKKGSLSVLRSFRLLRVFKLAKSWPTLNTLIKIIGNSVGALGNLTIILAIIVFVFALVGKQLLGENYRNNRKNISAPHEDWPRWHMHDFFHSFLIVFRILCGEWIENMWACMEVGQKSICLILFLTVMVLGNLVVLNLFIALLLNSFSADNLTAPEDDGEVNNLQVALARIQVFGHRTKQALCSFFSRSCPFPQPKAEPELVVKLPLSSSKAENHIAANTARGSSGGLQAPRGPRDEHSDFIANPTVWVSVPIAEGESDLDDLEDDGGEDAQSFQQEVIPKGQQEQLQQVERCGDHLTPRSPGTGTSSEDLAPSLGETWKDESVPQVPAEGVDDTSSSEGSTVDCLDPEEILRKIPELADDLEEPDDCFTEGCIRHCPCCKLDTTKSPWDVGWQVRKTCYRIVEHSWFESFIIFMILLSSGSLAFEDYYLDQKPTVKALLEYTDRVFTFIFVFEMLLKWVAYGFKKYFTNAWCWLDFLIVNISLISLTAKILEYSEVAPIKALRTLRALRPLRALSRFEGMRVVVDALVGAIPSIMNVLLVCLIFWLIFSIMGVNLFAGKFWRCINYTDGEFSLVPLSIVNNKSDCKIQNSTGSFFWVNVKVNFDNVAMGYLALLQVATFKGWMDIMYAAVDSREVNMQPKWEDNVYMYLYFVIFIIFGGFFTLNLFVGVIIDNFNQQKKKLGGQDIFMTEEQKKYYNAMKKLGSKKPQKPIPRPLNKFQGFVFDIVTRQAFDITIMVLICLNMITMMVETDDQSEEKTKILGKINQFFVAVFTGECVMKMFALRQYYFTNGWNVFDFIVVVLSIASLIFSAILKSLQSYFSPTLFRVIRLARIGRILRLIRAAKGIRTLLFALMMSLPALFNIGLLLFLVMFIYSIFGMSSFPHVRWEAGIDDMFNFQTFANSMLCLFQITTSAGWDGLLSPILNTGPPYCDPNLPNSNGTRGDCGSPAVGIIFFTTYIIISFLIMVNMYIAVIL

IC50, ≥ 5 µM:
COc1cc(F)ccc1Oc1cc(C(C)(C)C)cc(C)c1-c1cc(=O)cc(C(O)CO)[nH]1 (stereo not drawn) [Compound 274, 2-[4-tert-butyl-2-(4-fluoro-2-methoxy-phenoxy)-6-methyl-phenyl]-6-(1,2-dihydroxyethyl)-1H-pyridin-4-one]
Cc1cc(=O)cc(-c2ccc(C(F)(F)F)cc2C2(O)CCC(F)(F)CC2)[nH]1 [Compound 323, 2-[2-(4,4-difluoro-1-hydroxy-cyclohexyl)-4-(trifluoromethyl)phenyl]-6-methyl-1H-pyridin-4-one]
Cc1cc(=O)cc(-c2cc(C(F)(F)F)cnc2N2CCC(F)(F)CC2)[nH]1 [Compound 157, 2-[2-(4,4-difluoro-1-piperidyl)-5-(trifluoromethyl)-3-pyridyl]-6-methyl-1H-pyridin-4-one]
Cc1cc(=O)[nH]c(-c2nc(C(F)(F)F)ccc2N2CCCC(F)(F)CC2)n1 [Compound 252, 2-[3-(4,4-difluoroazepan-1-yl)-6-(trifluoromethyl)-2-pyridyl]-4-methyl-1H-pyrimidin-6-one]

IC50, 2 to 5 µM:
CCOC(=O)c1c(-c2cc(C(F)(F)F)ncc2N2CCCC(F)(F)CC2)[nH]c(C)c(C)c1=O [Compound 34, ethyl 2-[5-(4,4-difluoroazepan-1-yl)-2-(trifluoromethyl)-4-pyridyl]-5,6-dimethyl-4-oxo-1H-pyridine-3-carboxylate]
COC(=O)c1c(-c2cc(C(F)(F)F)ncc2N2CCCC(F)(F)CC2)[nH]c(C)c(C)c1=O [Compound 297, methyl 2-[5-(4,4-difluoroazepan-1-yl)-2-(trifluoromethyl)-4-pyridyl]-5,6-dimethyl-4-oxo-1H-pyridine-3-carboxylate]
Cc1cc(=O)cc(-c2cc(C(F)(F)F)ncc2C2CCC(C(F)(F)F)CC2)[nH]1 (stereo not drawn) [Compound 322, 2-methyl-6-[2-(trifluoromethyl)-5-[4-(trifluoromethyl)cyclohexyl]-4-pyridyl]-1H-pyridin-4-one]
Cc1cnc(N2CCCC(F)(F)CC2)c(-c2cc(=O)cc(C)[nH]2)c1 [Compound 320, 2-[2-(4,4-difluoroazepan-1-yl)-5-methyl-3-pyridyl]-6-methyl-1H-pyridin-4-one]
CCOC(=O)c1c(-c2cc3ccccc3nc2N2CCC[C@@H](OC)C2)[nH]c(C)c(OC)c1=O [Compound 224, ethyl 5-methoxy-2-[2-[(3R)-3-methoxy-1-piperidyl]-3-quinolyl]-6-methyl-4-oxo-1H-pyridine-3-carboxylate]
CCOC(=O)c1c(-c2cc3ccccc3nc2N2CCCC(F)(F)C2)[nH]c(C)c(OC)c1=O [Compound 226, ethyl 2-[2-(3,3-difluoro-1-piperidyl)-3-quinolyl]-5-methoxy-6-methyl-4-oxo-1H-pyridine-3-carboxylate]

IC50, 0.5 to 2 µM:
CO[C@@H]1CN(c2nc3ccccc3cc2-c2cc(=O)cc(C)[nH]2)C[C@@H]1C [Compound 253, 2-[2-[(3S,4S)-3-methoxy-4-methyl-pyrrolidin-1-yl]-3-quinolyl]-6-methyl-1H-pyridin-4-one]
Cc1cc(=O)cc(-c2cc(C(F)(F)F)cnc2N2CCCC(F)(F)CC2)[nH]1 [Compound 156, 2-[2-(4,4-difluoroazepan-1-yl)-5-(trifluoromethyl)-3-pyridyl]-6-methyl-1H-pyridin-4-one]
Cc1c(Oc2nc3ccccc3cc2-c2cc(=O)cc[nH]2)ccc(F)c1F [Compound 115, 2-[2-(3,4-difluoro-2-methyl-phenoxy)-3-quinolyl]-1H-pyridin-4-one]
Cc1[nH]c(-c2ccc(C(C)(C)C)cc2OCC2CC2(F)F)cc(=O)c1C (stereo not drawn) [Compound 135, 6-[4-tert-butyl-2-[(2,2-difluorocyclopropyl)methoxy]phenyl]-2,3-dimethyl-1H-pyridin-4-one]
Cc1cc(-c2[nH]c(C)c(C)c(=O)c2C(=O)O)c(N2CCCC(F)(F)CC2)nc1C(F)(F)F [Compound 284, 2-[2-(4,4-difluoroazepan-1-yl)-5-methyl-6-(trifluoromethyl)-3-pyridyl]-5,6-dimethyl-4-oxo-1H-pyridine-3-carboxylic acid]

Source: US20250388543A1, “HETEROARYL COMPOUNDS FOR THE TREATMENT OF PAIN” (VERTEX PHARMACEUTICALS INCORPORATED, priority 2022, published 2025)
